Assay results published in patent publication US12410153B2, “Compounds, compositions and methods” (Avalo Therapeutics, Inc., priority 2014, dated 2025).

Columns and labels:
[1] = Polymorph stability (slurry and heating, XRPD); format: physicochemical; conditions: heating to 115° C.
Description: Crystalline Form II of Compound (I) was characterized using X-ray powder diffraction (XRPD) (FIG. 1A). The XRPD pattern corresponds to an anhydrous form denoted as Form II, which is highly crystalline. In addition to Form II, Compound (I) can exist as another anhydrous polymorph, denoted as Form I. The XRPD patterns of these phases are shown in FIG. 1B. A slurry experiment was performed at room temperature by adding approximately equal proportions of the two anhydrous phases to methyl-tert-butyl ether.

[2] = test system: systemic blood pressure and heart rate; experiment: Blood pressure profile in chronically instrumented (telemetered) rats; format: in vivo, rat
Description: A single oral gavage dose was administered (volume: 5 mL/kg). […] Following the completion of the Latin square, two additional dose concentrations were evaluated (0.6 and 10 mg/kg, n=3 per group).
All IV doses were administered in manually restrained rats via tail vena-puncture. It should be noted that vehicle controls were also administered.
A 24-hour recording was performed prior to dosing (vehicle alone) and after each oral dose.

Sprague-Dawley rats [3] = experiment: Acute depression model, forced swim test; format: in vivo, rat; conditions: 20 mg/kg vs vehicle
Description: Young, adult, male Sprague-Dawley rats were randomly assigned across the treatment groups and were administered vehicle (0.5% MC/0.02% SLS), the reference compound desipramine (20 mg/kg; a tricyclic antidepressant; Sigma, Lot #078K1326) dissolved in sterile water, or crystalline Form II of Compound (I) (0.1, 0.3, 1, 3, 10, and 30 mg/kg) suspended in 0.5% MC/0.02% SLS, twice on Day 1 (after habituation; ˜24 h prior to test, and prior to dark cycle) and once on Day 2 (30 min pre-test for desipramine and 45 min pre-test for Form II and vehicle).
Each Forced Swim chamber was constructed of clear acrylic (height, 40 cm; diameter, 20.3 cm). Rats were subjected to a pre-dose swim test of one 15-min session in cylinders containing water at 23° C.±1° C., followed approximately 24 h later by the experimental 5-min session. The water level was 16 cm deep during habituation and 30 cm deep during the test. Immobility, climbing, and swimming behaviors were recorded every 5 s for a total of 60 counts per subject. When an animal was unable to maintain a posture with its nose above water, it was immediately removed from the water and eliminated from the study. Blood was collected at the completion of swim test procedures and plasma was analyzed for Form II concentrations.

Sprague-Dawley rats [4] = experiment: Rat forced swim test 24 hours after administration; format: in vivo; conditions: 10 mg/kg, i.p., 24 hours before test, p<0.05
Description: This study aimed to evaluate the duration of the antidepressant-like effects of Form II of Compound (I) using the forced swim test in male, Sprague-Dawley rats. Clinically effective antidepressant compounds reduce immobility time and increase swimming in rodents subjected to this test. Rats received Compound (I) (10 mg/kg, p.o.) or ketamine (10 mg/kg, i.p.) and 24 hours later were subjected to testing. […] The data represent mean±SEM.

[5] = Repeated once-daily oral dosing with food (Days 1-7) in healthy subjects, PK and PD; format: in vivo, human; conditions: oral doses up to 20 mg
Description: A randomized, double-blind, placebo-controlled, parallel-dose group in-patient study is conducted to investigate the pharmacodynamic (PD) effects of crystalline Form II of Compound (I) in healthy subjects.
The study is designed as a three-part, sequential study. The sequential nature of the study ensures that a range of doses are investigated first in a young, healthy population (Part 1) before proceeding to higher doses in the healthy population and the comparator populations (intermediate age and elderly) (Parts 2 and 3). For the purposes of this study, “young” refers to a subject who is 18 to 45 years of age, “intermediate age” refers to a subject who is 46 to 64 years of age, and “elderly” refers to a subject who is 65 years of age or older.
After a screening period of up to 21 days (Days −23 to −3), 16 healthy, young male and female subjects are randomly assigned to a dose group as shown in Table 9.
Each parallel dose group is balanced for gender (approximately equal number of males and females). The randomized subjects are domiciled from Day −1 through Day 8. On Day −1, the subjects receive placebo tablets in the fed state and undergo ambulatory blood pressure monitoring (ABPM) and safety assessments to establish time-matched baselines. On Days 1-7, the subjects receive the study drug in the fed state and undergo safety, pharmacokinetic (PK) and pharmacodynamics (PD) assessments. On Days 8-11, follow-up PK and safety assessments are performed.
Safety assessments include Clinician-Administered Dissociative States Scale (CADSS), Columbia-Suicide Severity Rating Scale (C-SSRS), concomitant medication, adverse event (AE) and vital sign assessments. In PK assessments, blood samples are taken and analyzed to determine PK parameters such as Cmax, Tmax, AUC0-24, and t1/2. PD assessments include ABPM, plasma brain-derived neurotrophic factor (BDNF) measurements, and Profile of Mood States (POMS) assessments.
After a screening period of up to 21 days (Days −23 to −3), 16 subjects (8 healthy, young male and female subjects, and 8 healthy, intermediate age male and female subjects) are randomly assigned to a dose group as shown in Table 10.
After a screening period of up to 21 days (Days −23 to −3), 16 subjects (8 healthy, young male and female subjects, and 8 healthy, elderly male and female subjects) are randomly assigned to a dose group as shown in Table 11.

[6] = patients with TRMDD; Ibrahim et al. 2012; cited from earlier work
[7] = 1 mg/kg IV bolus, blocker alone

For `Cc1ccc(COC(=O)N2CC[C@H](CNc3ncccn3)[C@H](F)C2)cc1` [Form I, 4-methylbenzyl (3S, 4R)-3-fluoro-4-[(pyrimidin-2-ylamino)methyl] piperidine-1-carboxylate], the “phase change on heating (XRPD of recovered solids)” value [1] was “phase conversion to Form II”.
`CC(C)NCC(O)COc1ccc(CC(N)=O)cc1` (stereo not drawn) [atenolol, reference compound] showed an HR change [2, 7] of −87±11 bpm and an MAP change [2, 7] of −3.3±3.1 mmHg.
With `CNCCCN1c2ccccc2CCc2ccccc21` [Desipramine, reference compound] the swimming behavior (Sprague-Dawley rats [3]) was “no change”, the immobility (Sprague-Dawley rats [3]; P<0.001) was “significantly decreased” and the climbing behavior (Sprague-Dawley rats [3]; P<0.01) was “significantly increased”.
In the case of `CNC1(c2ccccc2Cl)CCCCC1=O` (stereo not drawn) [ketamine, reference compound], the immobility (Sprague-Dawley rats [4]) is reported as “reduced immobility” and the swim time (Sprague-Dawley rats [4]) is reported as “increased swim time significantly”.
For `Cc1ccc(COC(=O)N2CC[C@H](CNc3ncccn3)[C@H](F)C2)cc1` [Compound (I), 4-methylbenzyl (3S, 4R)-3-fluoro-4-[(pyrimidin-2-ylamino)methyl] piperidine-1-carboxylate], the “heart rates in human studies” value [5] was “have not been observed to increase to any significant degree”, the “primary hemodynamic observation in human studies” value [5] was “transient increase in systolic and diastolic blood pressure” and the heart rate ([2]; 0.3 and 0.6 mg/kg oral) was “modestly increased heart rate”. For the same compound, the heart rate ([2]; between 1 and 10 mg/kg oral) was “increased HR dose proportionally”, the “magnitude of change in hemodynamics compared with MK-801 (0.2 mg/kg IV)” value ([2]; oral 0.3-10 mg/kg) was “significantly less than that of MK-801” and the arterial blood pressure ([2]; oral, dose-dependent between 0.3-1 mg/kg, plateaued at 1-10 mg/kg) was “increased arterial blood pressure transiently”. For the same compound, the “HAM-D17 and Beck Depression Inventory (BDI)” value [6] was “showed antidepressant effects”.
